From article PMC6502651 (ChemMedChem, 2019)
Like-named read-outs stand apart in the source and are kept apart here.

What was measured:
human HDAC1 (hHDAC1) [1] = target: T1, human HDAC1 (hHDAC1) (Homo sapiens, UniProt Q13547); conditions: read-out: hHDAC1 IC50; reference HDACi; ref [22]–[23]; cited from earlier work
P. falciparum histone H4 = assay: Protein hyperacetylation assay; type: cell-based; conditions: trophozoite-stage Pf 3D7, 3 h, 5x IC50
[2] = tested on: 3D7 line of P. falciparum; assay: P. falciparum asexual intraerythrocytic growth inhibition; type: cell-based; conditions: for IC50: Plasmodium falciparum
[3] = tested on: mature stage V P. falciparum gametocytes; assay: Gametocytocidal activity; type: cell-based; conditions: Plasmodium falciparum, NF54, 48 h, read-out: Pf stage V gametocytes IC50
HepG2 cells = assay: HepG2 cytotoxicity bioluminescence assay; type: cell-based; conditions: Homo sapiens, HepG2, 48 h, read-out: IC50 (HepG2)
human HDAC6 (hHDAC6) = target: T2, human HDAC6 (hHDAC6) (Homo sapiens, UniProt Q9UBN7); assay: In vitro testing on hHDAC6
T2 sequence (Q9UBN7 1-1215): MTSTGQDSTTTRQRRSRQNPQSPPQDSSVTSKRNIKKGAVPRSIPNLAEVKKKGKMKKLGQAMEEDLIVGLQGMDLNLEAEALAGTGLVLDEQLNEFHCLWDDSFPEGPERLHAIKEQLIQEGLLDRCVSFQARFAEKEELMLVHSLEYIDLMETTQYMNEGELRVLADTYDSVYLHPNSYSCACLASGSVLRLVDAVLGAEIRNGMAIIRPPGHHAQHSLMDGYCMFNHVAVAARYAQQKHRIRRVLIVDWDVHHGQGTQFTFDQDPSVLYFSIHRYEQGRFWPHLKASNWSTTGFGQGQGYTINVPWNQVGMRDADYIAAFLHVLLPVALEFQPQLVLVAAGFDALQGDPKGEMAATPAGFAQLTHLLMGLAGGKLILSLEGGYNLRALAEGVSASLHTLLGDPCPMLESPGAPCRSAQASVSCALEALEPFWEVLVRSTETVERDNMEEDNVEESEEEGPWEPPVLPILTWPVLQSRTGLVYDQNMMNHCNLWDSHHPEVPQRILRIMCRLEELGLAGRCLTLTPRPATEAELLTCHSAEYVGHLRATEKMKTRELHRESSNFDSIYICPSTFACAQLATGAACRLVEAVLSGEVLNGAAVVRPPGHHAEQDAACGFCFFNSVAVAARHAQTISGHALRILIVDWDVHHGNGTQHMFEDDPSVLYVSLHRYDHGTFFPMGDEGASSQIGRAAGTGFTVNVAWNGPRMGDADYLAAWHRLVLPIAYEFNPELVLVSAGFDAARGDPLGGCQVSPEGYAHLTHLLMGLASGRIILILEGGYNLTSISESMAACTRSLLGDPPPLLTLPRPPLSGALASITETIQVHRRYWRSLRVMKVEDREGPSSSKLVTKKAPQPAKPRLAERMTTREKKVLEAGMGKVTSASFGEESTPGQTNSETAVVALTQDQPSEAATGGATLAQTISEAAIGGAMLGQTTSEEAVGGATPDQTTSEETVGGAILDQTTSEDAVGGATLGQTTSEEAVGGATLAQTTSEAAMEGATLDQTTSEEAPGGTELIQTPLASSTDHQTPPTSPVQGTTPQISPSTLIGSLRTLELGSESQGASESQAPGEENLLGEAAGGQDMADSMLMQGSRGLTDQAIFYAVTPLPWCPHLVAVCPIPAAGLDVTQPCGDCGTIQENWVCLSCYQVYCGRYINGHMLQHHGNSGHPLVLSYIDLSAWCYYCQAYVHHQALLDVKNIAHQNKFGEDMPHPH

human HDAC1 (hHDAC1) [4] = target: T1, human HDAC1 (hHDAC1); assay: In vitro testing on hHDAC1
[5] = tested on: P. berghei exo-erythrocytic forms; assay: P. berghei-Luc liver stage assay; type: cell-based; conditions: for Selectivity index (SI) = (mammalian cell IC50)/(Pb EEF IC50): HepG2 vs Pb EEF; for IC50: Plasmodium berghei, 48 h, read-out: Pb EEF IC50
[6] = 3D7, read-out: IC50 (Pf3D7), asexual intraerythrocytic stage P. falciparum 3D7

T1 sequence (Q13547 whole entry): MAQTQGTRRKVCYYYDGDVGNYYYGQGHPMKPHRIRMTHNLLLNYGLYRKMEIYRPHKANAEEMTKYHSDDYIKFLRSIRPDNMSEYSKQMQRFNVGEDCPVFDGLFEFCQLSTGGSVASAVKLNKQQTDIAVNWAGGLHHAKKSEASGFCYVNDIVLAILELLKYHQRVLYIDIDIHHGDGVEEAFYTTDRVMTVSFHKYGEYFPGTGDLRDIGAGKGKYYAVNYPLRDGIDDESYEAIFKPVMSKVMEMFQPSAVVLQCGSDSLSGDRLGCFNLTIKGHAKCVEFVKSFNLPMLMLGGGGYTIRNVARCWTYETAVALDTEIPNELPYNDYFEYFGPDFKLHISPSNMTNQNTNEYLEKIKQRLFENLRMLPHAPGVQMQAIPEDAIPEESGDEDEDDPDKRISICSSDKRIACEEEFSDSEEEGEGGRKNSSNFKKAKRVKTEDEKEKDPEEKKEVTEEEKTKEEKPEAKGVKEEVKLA

| SMILES | IC50 (human HDAC1 (hHDAC1) [1]) [nM] | histone acetylation compared to the vehicle control (in words) (P. falciparum histone H4) | IC50 ([2]; 3D7, read-out: IC50 (Pf3D7)) [nM] | IC50 [3] [nM] | Selectivity index (SI) = (mammalian cell IC50)/(P. falciparum IC50) ([2]; HepG2 vs Pf3D7) | IC50 [2, 6] [nM] | IC50 (HepG2 cells) [nM] | IC50 (human HDAC6 (hHDAC6)) [nM] | Selectivity index (SI) = hHDAC1/hHDAC6 (human HDAC6 (hHDAC6)) | IC50 (human HDAC1 (hHDAC1) [4]) [nM] | Selectivity index (SI) = (mammalian cell IC50)/(Pb EEF IC50) [5] | IC50 [5] [nM] |
| --- | --- | --- | --- | --- | --- | --- | --- | --- | --- | --- | --- | --- |
| O=C(NO)c1ccc(CC(=O)N(CCO)c2ccccc2)cc1 [HPOB] | 2100 |  |  |  |  |  |  |  |  |  |  |  |
| O=C(CCCCCCC(=O)Nc1ccccc1)NO [SAHA, vorinostat, reference compound] |  | significantly increased acetylation | 170 |  |  |  |  |  |  |  |  |  |
| CNC(=O)CN(Cc1ccc(C(=O)NO)cc1)C(=O)c1cc(C)cc(C)c1 [Compound 2s, N-(4-(Hydroxycarbamoyl)benzyl)-3,5-dimethyl-N-(2-(methylamino)-2-oxoethyl)benzamide] |  |  |  | 16800 | 889 | 54 | 48000 | 44 | 7 | 290 | 7 | 7170 |
| CN(C)c1ccc(C(=O)N(Cc2ccc(C(=O)NO)cc2)C(C(=O)NC2CCCCC2)c2ccccc2)cc1 (racemic) [Compound 2d, rac-N-(2-(Cyclohexylamino)-2-oxo-1-phenylethyl)-4-(dimethylamino)-N-(4-(hydroxycarbamoyl)benzyl)benzamide] |  |  |  | 14800 |  | 390 | > 50000 | 64 | 13 | 840 | >3 | 19300 |
